Assays:
[1] = target: LecB (PA-IIL) (Pseudomonas aeruginosa, UniProt Q9HYN5); type: binding; settings: read-out: LecB / KD
[2] = target: T1, BambL (Burkholderia ambifaria, UniProt Q0B4G1); test: X-ray crystal structure of complex, […] Å; type: binding; settings: co-crystallised with 5 mM sugar; intra- and intermonomeric sites; reservoir pH 5.0
T1 construct: gene Bamb_5415
T1 sequence (Q0B4G1 1-87 limits assumed): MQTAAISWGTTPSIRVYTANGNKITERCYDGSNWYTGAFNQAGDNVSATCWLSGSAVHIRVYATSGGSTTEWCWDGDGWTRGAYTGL

LecB (PA-IIL), sequence (Q9HYN5 2-115 limits assumed): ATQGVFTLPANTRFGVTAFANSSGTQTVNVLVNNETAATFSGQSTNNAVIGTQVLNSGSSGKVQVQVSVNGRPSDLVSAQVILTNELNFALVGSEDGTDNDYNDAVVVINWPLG

## CC(=O)N[C@H]1[C@H]([C@H](O)[C@H](O)CO)O[C@@](O[C@H]2[C@@H](O)[C@@H](CO)O[C@@H](O[C@H]3[C@H](O[C@@H]4O[C@@H](C)[C@@H](O)[C@@H](O)[C@@H]4O)[C@@H](CO)OC(O)[C@@H]3NC(C)=O)[C@@H]2O)(C(=O)O)C[C@@H]1O (some centres unmarked) [sLe^a]
[1]
  Kd: 290 nM

## CC(=O)N[C@H]1[C@H](O[C@H]2[C@@H](O)[C@@H](CO)OC(O)[C@@H]2O)O[C@H](CO)[C@@H](O[C@@H]2O[C@H](CO)[C@H](O)[C@H](O)[C@H]2O)[C@@H]1O[C@@H]1O[C@@H](C)[C@@H](O)[C@@H](O)[C@@H]1O (some centres unmarked) [Le^x tetrasaccharide]
[2]
  X-ray crystal structure of complex, 1.6 Å: BambL was cocrystallised with the Le^x tetrasaccharide

## CC(=O)N[C@H]1C(O)O[C@H](CO)[C@@H](O)[C@@H]1O[C@@H]1O[C@H](CO)[C@H](O)[C@H](O)[C@H]1O[C@@H]1O[C@@H](C)[C@@H](O)[C@@H](O)[C@@H]1O (some centres unmarked) [H type 1]
[1]
  Kd: 1390 nM

## CC(=O)N[C@H]1[C@@H](O[C@H]2[C@@H](O)[C@@H](CO)OC(O)[C@@H]2O[C@@H]2O[C@@H](C)[C@@H](O)[C@@H](O)[C@@H]2O)O[C@H](CO)[C@H](O)[C@@H]1O (some centres unmarked) [A tri]
[1]
  Kd: 10300 nM

## CC(=O)N[C@H]1C(O)O[C@H](CO)[C@@H](O[C@@H]2O[C@H](CO)[C@H](O)[C@H](O)[C@H]2O[C@@H]2O[C@@H](C)[C@@H](O)[C@@H](O)[C@@H]2O)[C@@H]1O (some centres unmarked) [H type 2]
[1]
  Kd: 480 nM

Source: PMC3747263 (PLoS ONE, 2013)
